“And” between values parts separate entries of the source, which are not always exact repeats. Identical values can stand only once.
Assays:
[1] = test system: CSF cytokines; assay: Detection of inflammatory cytokines in CSF (Human Cytokine/Chemokine/Growth Factor Panel A); assay type: in vivo; settings: W 24, after 6 cycles lenalidomide; individual patients P5-P7 (cognitive non-improvement group)
Experimental: Detection of inflammatory cytokines in CSF: CSF samples were collected from the participants and centrifuged immediately; and the supernatant was stored at −80° C. until testing. 32 CSF cytokines were analyzed using the Human Cytokine/Chemokine/Growth Factor Panel A (Merck Millipore, St. Louis, USA): α-2-macroglobulin (α-2-M), apolipoprotein A-I (apoA-I), Apo-E, complement C3, complement factor H (CFH), fibroblast growth factor 2 (FGF-2), granulocyte-colony stimulating factor (G-CSF), granulocyte-macrophage colony-stimulating factor (GM-CSF), interferon-γ (IFN-γ), growth-regulated oncogene (GRO), soluble CD40 ligand (sCD40L), platelet-derived growth factor-AA (PDGF-AA), interleukin (IL)-12p40, IL-12p70, IL-13, IL-1α, IL-1β, IL-2, IL-3, IL-4, IL-6, IL-8, IL-10, IL-17α, monocyte chemoattractant protein-1 (MCP-1), macrophage inflammatory protein-la (MIP-la), MIP-1β, tumor necrosis factor-a (TNF-α), IL-17α, amyloid-β (1-42) (αβ42), total Tau (tTau) and phosphorylated Tau 181 (pTau181), The abbreviations of CSF cytokines are provided in Table 3.

[2] = test system: patients with cognitive dysfunction caused by HIV-associated CM-IRIS; assay: Center for Epidemiological Research Depression Scale (CES-D); assay type: in vivo, human; settings: before vs after lenalidomide treatment
[3] = test system: intracranial inflammation (CSF WBC, protein, albumin, IgG, glucose, chlorine, pressure); assay: CSF routine and biochemistry analysis; assay type: in vivo, human; settings: for Chlorine-W 24 / Protein-W 24 / WBC-W 24 / Glucose-W23 / Δ Protein / ΔChlorine / ΔGlucose / ΔWBC: CSF; for Glucose-W23: after treatment; for Δ Protein / ΔChlorine / ΔGlucose / ΔWBC / ΔICP: week 24 - week 0, median
[4] = individual Patients 1-4 (cognitive improvement group)
[5] = individual Patients 5-7 (cognitive non-improvement group)

Nc1cccc2c1CN(C1CCC(=O)NC1=O)C2=O (stereo not shown) [lenalidomide]
CSF GM-CSF [1]: 2.58 pg/mL and 1.29 pg/mL (2×) | CSF GRO [1]: 117.5 pg/mL and 44.05 pg/mL and 73.45 pg/mL | CSF IFN-γ [1]: 1.67 pg/mL and 1.01 pg/mL and 0.66 pg/mL | CSF IL-1α [1]: 3.37 pg/mL and 1.95 pg/mL and 1.42 pg/mL | CSF IL-1β [1]: 2.16 pg/mL and 1.03 pg/mL and 1.13 pg/mL | CSF IL-2 [1]: 1.44 pg/mL and 0.7 pg/mL and 0.74 pg/mL | CSF IL-3 [1]: 0.82 pg/mL and 0.52 pg/mL and 0.3 pg/mL | CSF IL-4 [1]: 2.71 pg/mL and 2.22 pg/mL and 0.49 pg/mL | CSF IL-6 [1]: 2.85 pg/mL | CSF IL-8 [1]: 234.05 pg/mL and 62.23 pg/mL and 171.82 pg/mL | CSF IL-10 [1]: 2.45 pg/mL and 3.7 pg/mL | CSF IL-12p40 [1]: 1.65 pg/mL and 1.13 pg/mL and 0.52 pg/mL | CSF IL-12p70 [1]: 2.69 pg/mL and 1.25 pg/mL and 1.44 pg/mL | CSF IL-13 [1]: 1.91 pg/mL and 0.99 pg/mL and 0.92 pg/mL | CSF IL-17α [1]: 1.13 pg/mL and 0.62 pg/mL | CSF IP-10 [1]: 13221 pg/mL and 3398 pg/mL and 9823 pg/mL | CSF MCP-1 [1]: 3992.12 pg/mL and 981.12 pg/mL and 3011 pg/mL | CSF MIP-1α [1]: 3.38 pg/mL and 5 pg/mL | CSF MIP-1β [1]: 31.83 pg/mL and 13.92 pg/mL and 17.91 pg/mL | CSF PDGF-AA [1]: 6.89 pg/mL and 2.9 pg/mL and 3.99 pg/mL | CSF TNF-α [1]: 8.22 pg/mL and 3.01 pg/mL and 5.21 pg/mL | CSF apoA-I [1]: 2047.9 pg/mL and 833.9 pg/mL and 1214 pg/mL | CSF pTau 181 [1]: 85.14 pg/mL and 48.8 pg/mL and 36.34 pg/mL | CSF sCD40L [1]: 2.49 pg/mL | CSF tTau [1]: 1309.82 pg/mL and 681.32 pg/mL and 628.5 pg/mL | CSF α-2-M [1]: 7109 pg/mL and 2778 pg/mL and 4331 pg/mL | CSF αβ42 [1]: 2453 pg/mL and 1168 pg/mL and 1285 pg/mL | CES-D score for anxiety or depression, before to after treatment [2]: no significant difference | change in CSF WBC after lenalidomide treatment ([3]; CI group, P=0.032): significant decline | change in CSF albumin after lenalidomide treatment ([3]; CI group, P=0.034): significant decline | change in CSF protein after lenalidomide treatment ([3]; CI group, P=0.034): significant decline | change in CSF IgG levels after lenalidomide treatment ([3]; CI group, P=0.050): significant decline | Chlorine-W 24 [3, 4]: 128 mmol/L (2×) and 131 mmol/L and 121 mmol/L | Protein-W 24 [3, 4]: 1.081 g/L and 1.24 g/L and 0.745 g/L and 0.788 g/L | WBC-W 24 [3, 4]: 2 ×106/L (2×) and 10 ×106/L and 0 ×106/L | Chlorine-W 24 [3, 5]: 123 mmol/L (2×) and 127 mmol/L | Protein-W 24 [3, 5]: 0.37 g/L and 0.908 g/L and 1.15 g/L | WBC-W 24 [3, 5]: 1e+06 L⁻¹ and 1e+07 L⁻¹ and 7e+06 L⁻¹ | Glucose-W23 [3, 4]: 2.4 mmol/L and 2.5 mmol/L and 3.6 mmol/L and 2.6 mmol/L | Glucose-W23 [3, 5]: 4.7 mmol/L and 2.4 mmol/L and 2.8 mmol/L | Δ Protein ([3]; CI group): -4.4 g/L | ΔChlorine ([3]; CI group): 2.0 mmol/L | ΔGlucose ([3]; CI group): 0.4 mmol/L | ΔWBC ([3]; CI group): -1.18e+08 L⁻¹ | Δ Protein ([3]; CNI group): 0.3 g/L | ΔChlorine ([3]; CNI group): -4.0 mmol/L | ΔGlucose ([3]; CNI group): -0.3 mmol/L | ΔWBC ([3]; CNI group): 7e+06 L⁻¹ | ICP-W 24 [3, 4]: 120 mmH2O and 152 mmH2O and 150 mmH2O and 85 mmH2O | ICP-W 24 [3, 5]: 200 mmH2O and 120 mmH2O and 95 mmH2O | ΔICP ([3]; CI group): 10.0 mmH2O | ΔICP ([3]; CNI group): −20.0 mmH2O

— US20240207240A1, “Method for Improving or Treating Cognitive Dysfunction Complicating HIV-associated Cryptococcal Meningitis with Lenalidomide” (The First Affiliated Hospital Zhejiang University School of …, priority 2022, published 2024)
